Laboratory results published in ChEMBL document CHEMBL4665820, “Discovery of VU6027459: A First-in-Class Selective and CNS Penetrant mGlu Positive Allosteric Modulator Tool Compound” (ACS Med Chem Lett, 2020).
Activity calls are given as the source filed them. The calls are words filed in the database; no cut-off is given here.

Tests used:
[1] = molecular target: Metabotropic glutamate receptor 7 (Homo sapiens) (UniProt Q14831); experiment: Agonist activity at human mGlu7 receptor; settings: tested as the 2H-labelled form
Chain of Metabotropic glutamate receptor 7 (Homo sapiens) (Q14831 whole entry): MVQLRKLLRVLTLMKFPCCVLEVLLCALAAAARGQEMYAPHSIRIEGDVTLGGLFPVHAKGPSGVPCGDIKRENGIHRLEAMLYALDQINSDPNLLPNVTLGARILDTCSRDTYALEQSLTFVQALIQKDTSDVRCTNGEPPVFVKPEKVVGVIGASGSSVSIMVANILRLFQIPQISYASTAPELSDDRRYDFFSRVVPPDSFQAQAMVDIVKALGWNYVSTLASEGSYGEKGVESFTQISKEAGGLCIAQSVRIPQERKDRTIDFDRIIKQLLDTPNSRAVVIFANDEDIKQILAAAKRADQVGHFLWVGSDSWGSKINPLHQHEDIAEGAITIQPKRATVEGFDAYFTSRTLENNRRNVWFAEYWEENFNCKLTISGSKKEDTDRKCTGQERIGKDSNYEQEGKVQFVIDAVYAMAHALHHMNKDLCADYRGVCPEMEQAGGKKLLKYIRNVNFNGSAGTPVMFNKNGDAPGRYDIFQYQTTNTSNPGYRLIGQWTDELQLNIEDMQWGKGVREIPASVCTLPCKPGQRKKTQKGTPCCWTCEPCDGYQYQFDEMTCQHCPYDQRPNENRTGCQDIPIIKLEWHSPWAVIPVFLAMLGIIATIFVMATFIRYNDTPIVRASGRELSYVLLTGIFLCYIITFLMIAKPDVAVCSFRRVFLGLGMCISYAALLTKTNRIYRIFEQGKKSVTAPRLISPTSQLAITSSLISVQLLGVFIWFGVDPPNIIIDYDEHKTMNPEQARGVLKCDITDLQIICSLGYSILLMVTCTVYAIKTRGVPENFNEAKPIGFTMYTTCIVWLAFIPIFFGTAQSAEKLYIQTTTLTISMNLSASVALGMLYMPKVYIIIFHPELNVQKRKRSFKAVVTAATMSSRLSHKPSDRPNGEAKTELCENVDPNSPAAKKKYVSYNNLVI

[2] = molecular target: Neuronal acetylcholine receptor; alpha3/beta4 (Homo sapiens) (UniProt P30926+P32297); experiment: Displacement of [125I] epibatidine from human nicotinic acetylcholine receptor alpha3/beta4 at 10 uM incubated for 60 mins by scintillation counting analysis relative to control; type: protein-complex assay
[3] = molecular target: Androgen receptor (Homo sapiens) (UniProt P10275); experiment: Displacement of [3H]-methyltrienolone from human androgen receptor at 10 uM incubated for 1440 mins by scintillation counting analysis relative to control
Chain of Androgen receptor (Homo sapiens) (P10275 whole entry): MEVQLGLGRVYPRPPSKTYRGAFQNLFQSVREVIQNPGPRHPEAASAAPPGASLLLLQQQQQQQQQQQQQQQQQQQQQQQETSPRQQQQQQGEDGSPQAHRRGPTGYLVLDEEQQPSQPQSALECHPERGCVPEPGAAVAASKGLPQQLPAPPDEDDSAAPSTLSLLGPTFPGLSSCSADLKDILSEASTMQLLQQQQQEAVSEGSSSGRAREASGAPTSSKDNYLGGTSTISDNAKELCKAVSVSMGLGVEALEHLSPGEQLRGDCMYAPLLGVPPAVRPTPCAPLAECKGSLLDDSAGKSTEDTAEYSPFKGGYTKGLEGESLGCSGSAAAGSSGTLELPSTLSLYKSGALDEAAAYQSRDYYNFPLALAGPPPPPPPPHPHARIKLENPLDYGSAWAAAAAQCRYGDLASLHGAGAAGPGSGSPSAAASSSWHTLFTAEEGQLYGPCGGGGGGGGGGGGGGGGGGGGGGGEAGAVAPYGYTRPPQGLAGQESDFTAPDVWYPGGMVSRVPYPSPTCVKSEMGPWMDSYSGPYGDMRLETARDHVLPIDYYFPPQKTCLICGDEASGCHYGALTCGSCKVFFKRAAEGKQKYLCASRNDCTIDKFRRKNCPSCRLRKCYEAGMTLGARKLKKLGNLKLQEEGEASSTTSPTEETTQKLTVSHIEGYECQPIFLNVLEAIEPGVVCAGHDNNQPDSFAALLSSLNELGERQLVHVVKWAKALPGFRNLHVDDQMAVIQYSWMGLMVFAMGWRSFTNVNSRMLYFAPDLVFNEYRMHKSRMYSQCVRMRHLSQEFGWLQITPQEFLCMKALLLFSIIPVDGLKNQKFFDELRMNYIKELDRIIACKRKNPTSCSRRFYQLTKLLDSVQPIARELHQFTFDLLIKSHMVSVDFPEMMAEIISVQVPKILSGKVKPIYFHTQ

Cricetinae = experiment: Displacement of [3H]-Glyburide from hamster potassium channel at 10 uM incubated for 120 mins by scintillation counting analysis relative to control
[4] = molecular target: Metabotropic glutamate receptor 7 (Homo sapiens) (UniProt Q14831); experiment: Positive allosteric modulation of human mGlu7 receptor; settings: filed as positive allosteric modulator; tested as the 2H-labelled form
[5] = Fraction unbound in mouse plasma at 5 uM incubated for 4 hrs by equilibrium dialysis based LC-MS/MS analysis; type: ADME, cell-free
[6] = molecular target: Adenosine receptor A1 (Homo sapiens) (UniProt P30542); experiment: Displacement of [3H]-DPCPX from human recombinant adenosine A1 receptor at 10 uM after 60 mins by scintillation counting analysis relative to control
Chain of Adenosine receptor A1 (Homo sapiens) (P30542 whole entry): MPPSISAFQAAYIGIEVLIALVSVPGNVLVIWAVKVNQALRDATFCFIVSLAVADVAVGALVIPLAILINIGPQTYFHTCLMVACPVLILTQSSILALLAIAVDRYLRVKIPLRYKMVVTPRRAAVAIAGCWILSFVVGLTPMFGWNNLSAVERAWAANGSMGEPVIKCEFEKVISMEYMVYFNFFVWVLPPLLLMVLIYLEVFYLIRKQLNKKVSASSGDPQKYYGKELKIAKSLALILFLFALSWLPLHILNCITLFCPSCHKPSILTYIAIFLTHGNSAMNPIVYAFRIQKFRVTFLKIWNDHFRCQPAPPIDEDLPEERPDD

[7] = molecular target: Adenosine receptor A2a (Homo sapiens) (UniProt P29274); experiment: Displacement of [3H]-CGS 21680 from human recombinant adenosine A2A receptor at 10 uM after 120 mins by scintillation counting analysis relative to control
Chain of Adenosine receptor A2a (Homo sapiens) (P29274 whole entry): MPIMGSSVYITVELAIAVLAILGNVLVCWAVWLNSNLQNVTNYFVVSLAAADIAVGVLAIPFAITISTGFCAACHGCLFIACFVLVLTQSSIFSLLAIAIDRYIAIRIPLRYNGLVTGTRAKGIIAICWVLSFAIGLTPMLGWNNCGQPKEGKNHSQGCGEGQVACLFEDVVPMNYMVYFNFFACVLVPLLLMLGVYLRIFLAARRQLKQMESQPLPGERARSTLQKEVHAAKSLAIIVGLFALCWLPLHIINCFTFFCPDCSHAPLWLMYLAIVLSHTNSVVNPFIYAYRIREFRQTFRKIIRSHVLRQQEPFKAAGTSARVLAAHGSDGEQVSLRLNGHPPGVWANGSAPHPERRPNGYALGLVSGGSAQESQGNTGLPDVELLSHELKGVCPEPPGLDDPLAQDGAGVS

[8] = Fraction unbound in rat plasma at 5 uM incubated for 4 hrs by equilibrium dialysis based LC-MS/MS analysis; type: ADME, cell-free
[9] = Hepatic intrinsic clearance in rat liver microsomes at 1 uM preincubated for 5 mins followed by NADPH addition and measured up to 45 mins by LC-MS/MS analysis; type: ADME, Microsome; settings: read-out: CLH
[10] = Hepatic intrinsic clearance in mouse liver microsomes at 1 uM preincubated for 5 mins followed by NADPH addition and measured up to 45 mins by LC-MS/MS analysis; type: ADME, Microsome; settings: read-out: CLH
CHO-K1 = experiment: Inhibition of human recombinant full length Dopamine D4.2 receptor expressed in CHOK1 cells at 10 uM incubated for 30 mins by GTPgammaS assay relative to control; type: cell-based
[11] = molecular target: 5-hydroxytryptamine receptor 1A (Homo sapiens) (UniProt P08908); experiment: Displacement of [3H]8-OH-DPAT from recombinant human 5-HT1A receptor at 10 uM after 60 mins by scintillation counting analysis relative to control
Chain of 5-hydroxytryptamine receptor 1A (Homo sapiens) (P08908 whole entry): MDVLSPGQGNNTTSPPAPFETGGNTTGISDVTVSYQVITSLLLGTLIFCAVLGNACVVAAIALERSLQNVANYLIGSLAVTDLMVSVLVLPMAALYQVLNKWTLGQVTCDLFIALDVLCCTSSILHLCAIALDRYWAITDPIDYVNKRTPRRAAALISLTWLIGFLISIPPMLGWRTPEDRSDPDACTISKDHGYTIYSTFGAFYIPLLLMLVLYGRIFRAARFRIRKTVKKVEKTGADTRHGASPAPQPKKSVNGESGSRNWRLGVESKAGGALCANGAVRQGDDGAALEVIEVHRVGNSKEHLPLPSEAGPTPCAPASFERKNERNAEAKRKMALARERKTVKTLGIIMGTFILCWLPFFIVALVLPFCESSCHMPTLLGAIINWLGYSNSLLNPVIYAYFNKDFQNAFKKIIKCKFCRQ

Rattus norvegicus = species: Rattus norvegicus; experiment: Displacement of [125I]-Triiodothyronine from thyroid hormone receptors in rat at 10 uM incubated for 180 mins by scintillation counting analysis relative to control
[12] = Plasma clearance in Sprague-Dawley rat at 0.2 to 0.25 mg/kg, iv measured upto 24 hrs by LC/MS/MS analysis; type: ADME, organism-based; settings: dose 0.2-0.25 mg/kg
[13] = Volume of distribution at steady state in Sprague-Dawley rat at 0.2 to 0.25 mg/kg, iv measured upto 24 hrs by LC/MS/MS analysis; type: ADME, organism-based; settings: in vivo, dose 0.2-0.25 mg/kg, read-out: Vdss
[14] = molecular target: Metabotropic glutamate receptor 7 (Rattus norvegicus, UniProt P35400); experiment: Positive allosteric modulation of rat mGlu7 expressed in HEK293 cells co- expressing GIRK assessed as potentiation of L-AP4-induced thallium flux incubated for 140 sec by FluoZin2-AM dye based fluorescence analysis; type: cell-based
Chain of Metabotropic glutamate receptor 7 (P35400 whole entry): as the sequence (Q14831 whole entry) above, with R5G, A27V, N454H, S488T, A520S, D578N counted along it

hERG (KCNH2) = hERG (KCNH2) (Homo sapiens, UniProt Q12809); experiment: Displacement of [3H]-Astemizole from human recombinant full length ERG channel at 10 uM incubated for 60 mins by scintillation counting analysis relative to control; settings: probe [3H]-astemizole
Chain of hERG (KCNH2) (Q12809 whole entry): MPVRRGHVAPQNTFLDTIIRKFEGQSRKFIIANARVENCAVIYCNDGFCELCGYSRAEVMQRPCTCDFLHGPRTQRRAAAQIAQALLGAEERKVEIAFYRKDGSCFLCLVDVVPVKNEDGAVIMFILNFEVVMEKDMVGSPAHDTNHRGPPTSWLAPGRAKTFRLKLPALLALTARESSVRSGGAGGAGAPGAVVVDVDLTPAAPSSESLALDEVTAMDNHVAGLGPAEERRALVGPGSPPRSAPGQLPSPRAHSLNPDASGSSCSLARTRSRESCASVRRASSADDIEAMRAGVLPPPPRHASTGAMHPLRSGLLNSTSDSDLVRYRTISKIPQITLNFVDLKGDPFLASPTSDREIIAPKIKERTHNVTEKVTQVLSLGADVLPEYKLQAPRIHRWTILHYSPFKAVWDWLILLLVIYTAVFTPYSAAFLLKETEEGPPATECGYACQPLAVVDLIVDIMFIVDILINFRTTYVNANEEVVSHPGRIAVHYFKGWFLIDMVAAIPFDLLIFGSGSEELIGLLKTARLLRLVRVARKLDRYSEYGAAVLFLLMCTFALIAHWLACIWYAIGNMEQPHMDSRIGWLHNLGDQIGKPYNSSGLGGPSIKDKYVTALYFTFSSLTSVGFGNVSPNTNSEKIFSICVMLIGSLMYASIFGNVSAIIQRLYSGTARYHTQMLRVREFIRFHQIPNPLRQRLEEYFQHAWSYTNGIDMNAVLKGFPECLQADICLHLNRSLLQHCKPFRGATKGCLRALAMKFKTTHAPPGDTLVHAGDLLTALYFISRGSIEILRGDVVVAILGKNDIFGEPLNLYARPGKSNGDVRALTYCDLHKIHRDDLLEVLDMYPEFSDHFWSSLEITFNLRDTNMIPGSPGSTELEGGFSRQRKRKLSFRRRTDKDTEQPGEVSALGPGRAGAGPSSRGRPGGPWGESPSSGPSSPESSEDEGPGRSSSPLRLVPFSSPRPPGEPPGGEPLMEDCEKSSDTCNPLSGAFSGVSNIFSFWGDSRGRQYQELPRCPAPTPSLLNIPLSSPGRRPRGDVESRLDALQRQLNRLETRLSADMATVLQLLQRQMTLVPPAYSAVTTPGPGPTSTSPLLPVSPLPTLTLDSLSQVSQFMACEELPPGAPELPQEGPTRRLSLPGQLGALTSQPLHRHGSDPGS

[15] = molecular target: dopamine transporter (DAT) (Homo sapiens, UniProt Q01959); experiment: Displacement of […] from recombinant human Dopamine transporter at 10 uM after 120 mins by scintillation counting analysis relative to control; type: ADME
Chain of dopamine transporter (DAT) (Q01959 whole entry): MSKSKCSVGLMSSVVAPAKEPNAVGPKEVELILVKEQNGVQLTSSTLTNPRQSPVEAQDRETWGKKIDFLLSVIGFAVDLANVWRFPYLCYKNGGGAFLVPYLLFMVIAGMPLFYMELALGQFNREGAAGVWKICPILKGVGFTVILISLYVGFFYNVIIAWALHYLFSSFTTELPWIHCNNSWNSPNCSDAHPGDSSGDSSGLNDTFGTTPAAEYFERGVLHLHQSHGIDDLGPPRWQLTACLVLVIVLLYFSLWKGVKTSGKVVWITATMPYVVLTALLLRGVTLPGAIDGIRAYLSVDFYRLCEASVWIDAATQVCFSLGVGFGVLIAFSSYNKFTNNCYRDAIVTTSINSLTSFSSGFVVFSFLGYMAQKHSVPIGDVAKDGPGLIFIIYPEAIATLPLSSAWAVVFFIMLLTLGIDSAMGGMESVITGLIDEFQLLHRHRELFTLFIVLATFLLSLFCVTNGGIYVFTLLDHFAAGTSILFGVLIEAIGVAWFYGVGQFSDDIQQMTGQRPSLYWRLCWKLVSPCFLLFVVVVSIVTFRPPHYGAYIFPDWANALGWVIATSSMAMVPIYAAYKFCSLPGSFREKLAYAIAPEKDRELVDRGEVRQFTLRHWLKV

[16] = Half-life in Sprague-Dawley rat at 0.2 to 0.25 mg/kg, iv measured upto 24 hrs by LC/MS/MS analysis; type: ADME, organism-based; settings: in vivo, dose 0.2-0.25 mg/kg

## COc1cc(F)cc2c(N3CCN(c4ccccc4F)CC3)c(C#N)cnc12
[1]
  Activity: inactive
[2]; tested as the 2H-labelled form
  inhibition: < 50%
[3]; tested as the 2H-labelled form
  inhibition: < 50%
Cricetinae; tested as the 2H-labelled form
  inhibition: < 50%
[4]
  Activity: Active
[5]
  fraction unbound at 4 h, 5 µM: 0.012
[6]; tested as the 2H-labelled form
  inhibition: < 50%
[7]; tested as the 2H-labelled form
  inhibition: < 50%
[8]
  fraction unbound at 4 h, 5 µM: 0.01
[9]
  CLint scaled at 1 µM: 56 mL/min/kg
[10]
  CLint scaled at 1 µM: 87 mL/min/kg
CHO-K1; tested as the 2H-labelled form
  inhibition: < 50%
[11]; tested as the 2H-labelled form
  inhibition: < 50%
Rattus norvegicus; tested as the 2H-labelled form
  inhibition: < 50%

## COc1cccc2c(N3CCN(c4ccccc4F)CC3)c(C#N)cnc12
[2]
  inhibition: < 50%
[3]
  inhibition: < 50%
Cricetinae
  inhibition: < 50%
[5]
  fraction unbound at 4 h, 5 µM: 0.051
[6]
  inhibition: < 50%
[7]
  inhibition: < 50%
[8]
  fraction unbound at 4 h, 5 µM: 0.032
[12]
  clearance: 47.5 mL/min/kg
CHO-K1
  inhibition: < 50%
[13]
  Vd: 4.1 L/kg
[11]
  inhibition: < 50%
[14]
  EC50: 879 nM
hERG (KCNH2)
  inhibition at 1 h, 10 µM: < 50%
[15]
  inhibition at 2 h, 10 µM: 85%
[16]
  half-life: 45 min
Rattus norvegicus
  inhibition: < 50%
